Counter-ions that a name gives are not always drawn. Like-named read-outs stand apart in the source and are kept apart here.
Assays:
[1] = target: T1, Recombinant human PKC-theta (His-tagged 362-706) (Homo sapiens, UniProt Q04759); experiment: PKC-theta inhibition assay (HTRF KinEASE kit); format: biochemical; settings: STK substrate 525 nM
T1 construct: Recombinant human PKC-theta (His-tagged 362-706); His
Protocol: PKC-theta and PKC-delta biochemical activities were measured using the PKC-theta HTRF KinEASEkit kit, according to manufacturer's instructions (Cisbio, catalogue number 61ST1PEJ). Briefly, the kinase buffer component of the kit was supplemented with 10 mM MgCl2, 1 mM DTT and 0.1% Tween 20. […] The streptavidin_XL665 and STK antibody-cryptate detection reagents were mixed according to the manufacturer's instructions. Test compounds were diluted in DMSO in a series of 10 semi-log step doses; 10 nL of each compound dose were dispensed in 384 well plates. […] The reaction was started by addition of the substrate and ATP and incubated at 25° C. for 30 minutes or 20 minutes for the PKC-theta and PKC-delta assays, respectively. The detection reagents were added, and the plate was incubated in the dark for 2 hours. […] The ratio of acceptor and donor emission signals was calculated for each well. Percent inhibition values were calculated from the HTRF ratios at different doses and fitted to a 4-parameter logistic curve to determine IC50 values (see Table 2).

[2] = tested on: IL-2 secretion by human effector memory T cells (TEM); experiment: Effector memory T cells IL-2 release assay (CD3/CD28 stimulation, HTRF IL-2 detection); format: cell-based; settings: 24 h; for IC50: Homo sapiens, T-cell
Protocol: Test compound-mediated inhibition of NFκB signalling in T cells was assessed by quantification of the IL-2 secretion by human effector memory T cells (TEM) upon treatment and stimulation. Human TEM cells were isolated from buffy coats of healthy donors obtained from the French blood bank.
Finally, 10 doses of test compound, originally prepared in DMSO by serial semi-log step dilution, were also added to cells in triplicate wells. Final DMSO concentration in wells was 0.1% in a total volume of 100 μL complete medium. Plates were incubated for 24 h at 37° C. in 5% CO2 atmosphere. After incubation, cell suspensions were centrifuged at 400×g and culture supernatants were recovered and stored at −80° C. […] IL-2 levels were determined in cell supernatants using an HTRF human IL-2 detection kit (Cisbio, cat #62HIL02PEH).

[3] = target: T2, Recombinant human PKC-delta (His-tagged 345-676) (Homo sapiens, UniProt Q05655); experiment: PKC-delta inhibition assay (HTRF KinEASE kit); format: biochemical; settings: ratio, PKC-theta vs PKC-delta HTRF; for PKC-theta/PKC-delta selectivity (binned): binned A to G
T2 construct: PKC-delta (His-tagged 345-676); His
T2 sequence (Q05655 345-676): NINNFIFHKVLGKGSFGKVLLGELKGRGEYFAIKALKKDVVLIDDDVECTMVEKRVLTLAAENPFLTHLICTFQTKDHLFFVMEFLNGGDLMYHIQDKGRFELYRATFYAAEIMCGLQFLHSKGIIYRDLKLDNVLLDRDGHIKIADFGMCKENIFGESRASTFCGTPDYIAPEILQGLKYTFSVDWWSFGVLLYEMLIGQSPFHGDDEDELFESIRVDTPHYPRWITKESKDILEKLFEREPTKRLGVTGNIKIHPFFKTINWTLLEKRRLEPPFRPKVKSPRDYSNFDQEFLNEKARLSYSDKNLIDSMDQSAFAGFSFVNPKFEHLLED

[4] = ATP 6.5 μM, binned A to H, read-out: PKC-theta HTRF pIC50 (binned) (converted)
[5] = ATP 6.5 μM, read-out: PKC-theta HTRF pIC50 (converted)
[6] = binned A to G, read-out: PKC-theta IL2 pIC50 (binned) (converted)
[7] = read-out: PKC-theta IL2 pIC50 (converted)

T1 sequence (Q04759 362-706): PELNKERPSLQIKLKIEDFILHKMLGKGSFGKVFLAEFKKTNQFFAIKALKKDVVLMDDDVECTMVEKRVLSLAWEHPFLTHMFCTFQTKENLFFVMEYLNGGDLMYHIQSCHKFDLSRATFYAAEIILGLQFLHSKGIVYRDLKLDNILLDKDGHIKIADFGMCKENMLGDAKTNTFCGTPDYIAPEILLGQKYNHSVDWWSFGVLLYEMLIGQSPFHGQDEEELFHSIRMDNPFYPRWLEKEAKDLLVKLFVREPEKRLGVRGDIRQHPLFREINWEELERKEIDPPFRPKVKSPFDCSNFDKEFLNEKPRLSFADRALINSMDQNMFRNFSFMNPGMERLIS

Row | SMILES | IC50 [1, 4] [nM] | IC50 [1, 5] [nM] | IC50 [2, 6] [nM] | IC50 [2, 7] [nM] | PKC-theta/PKC-delta selectivity [3] | PKC-theta/PKC-delta selectivity (binned) [3] | PKC-theta IL2 pIC50 [2] | PKC-theta IL2 pIC50 (binned) ([2]; binned A to G) | IC50 ([1]; PKC-theta HTRF pIC50 (binned), ATP 6.5 μM, binned A to H) [nM] | IC50 ([1]; PKC-theta HTRF pIC50, ATP 6.5 μM) [nM]
1 | CC[C@@]1(O)C(=O)Nc2nccc(-c3cc(C(F)(F)F)cc(N4CCNC[C@H]4C)n3)c21 (single isomer, unassigned) [Example 166] | 1 to 3.16 | 3.16 | 10 to 31.6 | 31.6 | 6 | E (a ratio of between 5 and 10) | – | – | – | –
2 | CC[C@]1(O)C(=O)Nc2nccc(-c3cc(C(F)(F)F)cc(N4CCNC[C@H]4C)n3)c21 (single isomer, unassigned) [Example 167] | 100 to 316 | 316 | > 1000 | 2510 | 33 | B (a ratio of between 30 and 50) | – | – | – | –
3 | CC[C@]1(C)C(=O)Nc2nccc(-c3cc(Cl)cc(N4CCN[C@@H](C)C4)n3)c21 (single isomer, unassigned) [Example 171] | 1 to 3.16 | 2.51 | 31.6 to 100 | 39.8 | 9 | E (a ratio of between 5 and 10) | – | – | – | –
4 | CO[C@]1(C)C(=O)Nc2nccc(-c3cc(Cl)cc(N4CCNC[C@H]4C)n3)c21 (single isomer, unassigned) [Example 172] | 3.16 to 10 | 10 | 100 to 316 | 100 | 13 | D (a ratio of between 10 and 20) | – | – | – | –
5 | CO[C@]1(C)C(=O)Nc2nccc(-c3cc(C(F)(F)F)cc(N4CCNC[C@H]4C)n3)c21 (single isomer, unassigned) [Example 176] | 10 to 31.6 | 12.6 | – | – | 20 | C (a ratio of between 20 and 30) | 6.9 | E (a measured pIC50 of between 6.5 and 7.0) | – | –
6 | CC[C@H]1CN(c2cc(C(F)(F)F)cc(-c3ccnc4c3[C@](C)(OC)C(=O)N4)n2)CCN1 (single isomer, unassigned) [Example 191] | 10 to 31.6 | 15.8 | 100 to 316 | 251 | 22 | C (a ratio of between 20 and 30) | – | – | – | –
7 | CO[C@]1(C)C(=O)Nc2nccc(-c3cc(C(C)(F)F)cc(N4CCNC[C@H]4C)n3)c21 (single isomer, unassigned) [Example 193] | 3.16 to 10 | 10 | 31.6 to 100 | 79.4 | 16 | D (a ratio of between 10 and 20) | – | – | – | –
8 | CC[C@]1(C)C(=O)Nc2nccc(-c3cc(C(F)(F)F)cc(N4CCNC[C@H]4C)n3)c21 (single isomer, unassigned) [Example 197] | 0.316 to 1 | 1 | 10 to 31.6 | 15.8 | 14 | D (a ratio of between 10 and 20) | – | – | – | –
9 | CC[C@@]1(C)C(=O)Nc2nccc(-c3cc(C(F)(F)F)cc(N4CCNC[C@H]4C)n3)c21 (single isomer, unassigned) [Example 198] | 3.16 to 10 | 3.98 | 31.6 to 100 | 63.1 | 30 | C (a ratio of between 20 and 30) | – | – | – | –
10 | CC[C@]1(C)C(=O)Nc2nccc(-c3cc(C(C)(F)F)cc(N4CCN[C@@H](C)C4)n3)c21 (single isomer, unassigned) [Example 199] | 1 to 3.16 | 1.58 | 10 to 31.6 | 25.1 | 16 | D (a ratio of between 10 and 20) | – | – | – | –
11 | CC[C@@]1(C)C(=O)Nc2nccc(-c3cc(C(C)(F)F)cc(N4CCN[C@@H](C)C4)n3)c21 (single isomer, unassigned) [Example 200] | 3.16 to 10 | 5.01 | 31.6 to 100 | 79.4 | 27 | C (a ratio of between 20 and 30) | – | – | – | –
12 | CC[C@]1(C)C(=O)Nc2nccc(-c3cc(C(C)(F)F)cc(N4CCNC[C@H]4C)n3)c21 (single isomer, unassigned) [Example 201] | 0.316 to 1 | 0.501 | 3.16 to 10 | 7.94 | 18 | D (a ratio of between 10 and 20) | – | – | – | –
13 | CC[C@@]1(C)C(=O)Nc2nccc(-c3cc(C(C)(F)F)cc(N4CCNC[C@H]4C)n3)c21 (single isomer, unassigned) [Example 202] | 3.16 to 10 | 3.98 | 31.6 to 100 | 50.1 | 22 | C (a ratio of between 20 and 30) | – | – | – | –
14 | CC[C@]1(C)C(=O)Nc2nccc(-c3cc(C(C)(F)F)cc(N4CCCNCC4)n3)c21 (single isomer, unassigned) [Example 205] | 3.16 to 10 | 3.98 | 31.6 to 100 | 79.4 | 13 | D (a ratio of between 10 and 20) | – | – | – | –
15 | CC[C@@]1(C)C(=O)Nc2nccc(-c3cc(C(C)(F)F)cc(N4CCCNCC4)n3)c21 (single isomer, unassigned) [Example 206] | 31.6 to 100 | 31.6 | 316 to 1000 | 631 | 23 | C (a ratio of between 20 and 30) | – | – | – | –
16 | CC(c1cccc(-c2ccnc3[nH]c(=O)[nH]c23)c1)N(C)C (stereo not drawn) [Example 1] | 316 to 1000 | 501 | > 1000 | 10000 | 1 | F (a ratio of between 1 and 5) | – | – | – | –
17 | O=c1[nH]c2nccc(-c3cccc(N4CCNCC4)c3)c2[nH]1 [Example 2] | 316 to 1000 | 501 | > 1000 | 10000 | 2 | F (a ratio of between 1 and 5) | – | – | – | –
18 | CN(C)Cc1cccc(-c2ccnc3[nH]c(=O)[nH]c23)c1 [Example 3] | 316 to 1000 | 794 | > 1000 | 5010 | 1 | F (a ratio of between 1 and 5) | – | – | – | –
19 | O=C1Cc2c(-c3cccc(N4CCNCC4)c3)ccnc2N1 [Example 4] | 100 to 316 | 251 | > 1000 | 5010 | 8 | E (a ratio of between 5 and 10) | – | – | – | –
20 | CC1C(=O)Nc2nccc(-c3cccc(N4CCNCC4)c3)c21 (stereo not drawn) [Example 5] | 31.6 to 100 | 79.4 | 316 to 1000 | 794 | 4 | F (a ratio of between 1 and 5) | – | – | – | –
21 | O=c1[nH]c2nccc(-c3cccc(N4CCNCC4)c3)c2o1 [Example 6] | > 1000 | 1000 | > 1000 | 10000 | 2 | F (a ratio of between 1 and 5) | – | – | – | –
22 | O=c1[nH]c2nccc(-c3cc(F)cc(N4CCNCC4)c3)c2[nH]1 [Example 7] | 100 to 316 | 100 | > 1000 | 2510 | 2 | F (a ratio of between 1 and 5) | – | – | – | –
23 | C[C@H]1CNCCN1c1cccc(-c2ccnc3[nH]c(=O)[nH]c23)c1 [Example 8, 7-[3-[(2S)-2-methylpiperazin-1-yl]phenyl]-1,3-dihydroimidazo[4,5-b]pyridin-2-one dihydrochloride] | – | – | > 1000 | 3980 | 2 | F (a ratio of between 1 and 5) | – | – | 316 to 1000 | 398
24 | COc1cc(-c2ccnc3[nH]c(=O)[nH]c23)cc(N2CCNCC2)c1 [Example 9] | > 1000 | 2000 | > 1000 | 1260 | 1 | G (a ratio of 0 to 1) | – | – | – | –

From patent US20260035367A1 (Celgene Corporation, priority 2021, published 2026)
